Among the data in ChEMBL document CHEMBL3407359, “(3Z)-3-(2-[4-(aryl)-1,3-thiazol-2-yl]hydrazin-1-ylidene)-2,3-dihydro-1H-indol-2-one derivatives as dual inhibitors of HIV-1 reverse transcriptase” (Eur J Med Chem, 2015) are IC50, Ratio IC50 and Activity values, retold here.

The target in data set [1] is T1, Human immunodeficiency virus type 1 reverse transcriptase (Human immunodeficiency virus 1, UniProt Q72547). The data set can be described thus: Inhibition of HIV1 reverse transcriptase-associated DNA polymerase-independent RNase H activity after 1 hr.
The target of data set [2] is Human immunodeficiency virus type 1 reverse transcriptase (Human immunodeficiency virus 1) (UniProt Q72547). As to the kind of experiment: Specificity index, ratio of IC50 for HIV1 reverse transcriptase-associated DNA polymerase-independent RNase H activity to IC50 for HIV1 reverse transcriptase-associated RNA-dependent DNA polymerase activity.
In data set [3] the target is T1, Human immunodeficiency virus type 1 reverse transcriptase. As to the kind of experiment: Inhibition of HIV1 reverse transcriptase-associated RNA-dependent DNA polymerase activity after 30 mins.
Data set [4] concerns the target T2, Human immunodeficiency virus type 1 reverse transcriptase (Human immunodeficiency virus 1, UniProt Q72547, Y181C).
Description: Inhibition of HIV1 reverse transcriptase Tyr181Cys mutant-associated DNA polymerase-independent RNase H activity after 1 hr
For data set [5], the target named is T2, Human immunodeficiency virus type 1 reverse transcriptase. This is another data set of the same source.
Description: Inhibition of HIV1 reverse transcriptase Tyr181Cys mutant-associated RNA-dependent DNA polymerase activity after 30 mins
A short description of data set [6]: Metal chelating activity of the compound assessed as magnesium ion complex formation by UV-vis spectrometric analysis. The data set is classed as physicochemical.
The target in data set [7] is T3, Human immunodeficiency virus type 1 reverse transcriptase (Human immunodeficiency virus 1, UniProt Q72547, K103N).
Description: Inhibition of HIV1 reverse transcriptase Lys103Asn mutant-associated DNA polymerase-independent RNase H activity after 1 hr
For data set [8], the target named is T3, Human immunodeficiency virus type 1 reverse transcriptase. This is another data set of the same source.
Description: Inhibition of HIV1 reverse transcriptase Lys103Asn mutant-associated RNA-dependent DNA polymerase activity after 30 mins

Take `O=C1Nc2ccccc2/C1=N/Nc1nc(-c2ccc([N+](=O)[O-])cc2)cs1`: the half-inhibitory concentration (IC50) (usually the concentration needed to halve the response being measured) in data set [1] is 2.9 µM; in data set [3], 34 µM. In addition, the Ratio IC50 in data set [2] was found to be 0.08.
For `O=C1Nc2ccccc2/C1=N/Nc1nc(-c2cccc([N+](=O)[O-])c2)cs1`, in that order: 2.8 µM, 13 µM and 0.21.
Turning to `O=C1Nc2ccccc2/C1=N/Nc1nc(-c2ccc(-c3ccccc3)cc2)cs1`, the IC50 was found to be 2.7 µM in data set [4]; 2.5 µM in data set [1]; 15.4 µM in data set [5]; 3.42 µM in data set [7]; 18.8 µM in data set [8]; 22 µM in data set [3]. Moreover, the Ratio IC50 in data set [2] worked out at 0.11. Moreover, in data set [6], the Activity result is “Not Active”.
On to `O=C1Nc2ccccc2/C1=N/Nc1nc(-c2ccc(Cl)cc2Cl)cs1`, for which the IC50 in data set [1] came to 3.9 µM; in data set [3] it was 19.5 µM. In addition, the Ratio IC50 in data set [2] came out at 0.2.
In the case of `O=C1Nc2ccccc2/C1=N/Nc1nc(-c2ccc(O)c(O)c2)cs1`, the IC50 in data set [1] is 3.2 µM; in data set [3], 0.9 µM. In addition, the Ratio IC50 in data set [2] was determined as 3.5. Moreover, the Activity entry in data set [6] was “Not Active”.
Turning to `O=C1Nc2ccccc2/C1=N/Nc1nc(-c2ccc(F)cc2F)cs1`, the IC50 in data set [1] amounted to 2.6 µM; in data set [3], 18.5 µM. For the same molecule, the Ratio IC50 in data set [2] came out at 0.14.
On to `O=C1Nc2ccccc2/C1=N/Nc1nc(-c2ccccc2)cs1`, for which the IC50 in data set [1] was found to be 100 µM; in data set [3], 71.6 µM. In addition, the Ratio IC50 in data set [2] stood at 1.3.
For `O=C1Nc2ccccc2/C1=N/Nc1nc(-c2ccc(Br)cc2)cs1` the same measures were 14.9 µM, 81 µM and 0.18.
Consider `O=C1Nc2ccccc2/C1=N/Nc1nc(-c2ccc(F)cc2)cs1`, for which the IC50 in data set [1] stood at 6.4 µM; in data set [3], 23.9 µM. In addition, in data set [2], the Ratio IC50 is 0.26.
`Cc1ccc(-c2csc(N/N=C3\C(=O)Nc4ccccc43)n2)cc1`: the IC50 in data set [1] was found to be 9 µM; in data set [3], 45 µM. The Ratio IC50 in data set [2] was determined as 0.2.
`COc1ccc(-c2csc(N/N=C3\C(=O)Nc4ccccc43)n2)cc1`: the IC50 amounted to 4.7 µM in data set [1] and 26 µM in data set [3]. For the same molecule, the Ratio IC50 in data set [2] was 0.18.
As to `O=C1Nc2ccccc2/C1=N/Nc1nc(-c2ccc(Cl)cc2)cs1`, the IC50 came out at 10.6 µM in data set [1] and 20 µM in data set [3]. Also, in data set [2], the Ratio IC50 was found to be 0.53.
